Assay results as given in paper PMC13576449, “Small-Molecule Activators of PRMT1: Discovery, SAR Analyses, and Proapoptotic Effects in Pancreatic Cancer Cells” (Journal of Medicinal Chemistry, 2026).
Where two headings read alike, the source gives them in different places.

Experiments:
[1] = system: FLAG-tagged PRMT1 or His-tagged PRMT1; experiment: Radioactive in vitro methyltransferase assay, autoradiography (core histones or GST-GAR); format: biochemical, rat, human; conditions: 100 μM compound, [14C]-methyl-SAM, vs DMSO-treated control
Source text: Given that the effects of the PRMT1 activators had been screened and quantified so far using the F-PRMT assay, we next assessed the efficacy of the selected compounds in stimulating PRMT1-mediated methylation of natural substrates. To this end, we conducted in vitro methyltransferase assays using recombinant PRMT1 and core histones or GST-tagged GAR (glycine-arginine-rich domain of fibrillarin) as substrates of PRMT1. , Addition of the cofactor [^14C]-methyl-SAM allowed for the visualization of radiolabeled methyl group incorporation into the substrate proteins by SDS-PAGE and autoradiography or by liquid scintillation counting. […] It is important to note that PRMT1 methylates both H2A and H4, albeit with variable efficiency. […] As a result, the methylation signals of both histones were considered in the quantification process (Figure A, B).
As negative control (Ctrl (−)), PRMT1 enzymes and [^14C-methyl]-SAM were incubated without substrates. Subsequently, samples were separated by SDS-PAGE, blotted, and analyzed by autoradiography. Substrates (H2A, H4 or GST-GAR) and molecular weights (kDa) of the protein marker are indicated. Black lines designate composite images, assembled from the same blots and exposure times. The methylation signals of the substrates were densitometrically quantified, and expressed relative to the DMSO-treated control, as indicated by the numbers below the autoradiographs. Representative results are depicted, with quantification graphs (below the autoradiographs in A and B) summarizing biological replicates. […] Subsequently, GST-GAR was immobilized on glutathione-beads and PRMT1 activity was measured by quantifying the incorporation of ^14C-methyl groups (in cpm) using liquid scintillation counting. […] Cell viability was quantified using the CellTiter-Glo assay. Viability of compound-treated cells is shown in % relative to the viability of solvent-treated cells, which was set to 100% (mean ± SD, n = 3), and then plotted against the logarithm of the compound concentrations. Concentration-viability curves were fitted by nonlinear regression, with the half-maximal inhibitory concentration (IC50) of the compounds for PANC-1 cell viability and the coefficient of determination (R^2) indicated. […] Subsequently, whole-cell extracts were prepared and analyzed by Western blot using antibodies against ADMA, ACTIN (ACT), and VINCULIN (VINC), of which the latter two stainings served as loading controls. Molecular weights (kDa) of the protein marker are indicated. All the ADMA signals per lane were densitometrically quantified, normalized to the signal of the respective loading control and expressed relative to the DMSO-treated control, as indicated by the numbers below the immunostainings. […]

FLAG-tagged PRMT1 = biological target: T1, FLAG-tagged PRMT1 (Rattus norvegicus, UniProt Q63009); experiment: Fluorescence-based in vitro PRMT assay (F-PRMT assay), PRMT1; format: biochemical; conditions: for activation at 100 µM: read-out: enhancement (increase) of PRMT1 enzymatic activity
T1 construct: Full-length FLAG-tagged PRMT protein; made in house; host or cells: Sf9 insect cells (baculovirus)
T1 sequence (Q63009 whole entry): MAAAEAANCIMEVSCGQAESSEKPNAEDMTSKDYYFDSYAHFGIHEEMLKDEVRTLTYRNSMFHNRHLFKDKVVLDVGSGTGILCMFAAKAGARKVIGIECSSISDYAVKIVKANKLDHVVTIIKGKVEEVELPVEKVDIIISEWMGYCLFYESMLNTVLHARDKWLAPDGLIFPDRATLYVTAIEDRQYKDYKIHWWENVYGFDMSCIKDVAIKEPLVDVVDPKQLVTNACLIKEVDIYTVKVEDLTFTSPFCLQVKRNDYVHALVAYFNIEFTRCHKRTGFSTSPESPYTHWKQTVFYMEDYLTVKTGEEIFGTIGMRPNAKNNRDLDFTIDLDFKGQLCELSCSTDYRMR

[2] = system: FLAG-tagged PRMT1 and His-tagged PRMT1; experiment: Pulldown assay of PRMT1 homodimerization; format: binding; conditions: 200 (and 500) μM compound vs DMSO
Source text: The poses were obtained by docking with HYBRID onto previously obtained docking poses of TR-033 (TR-07 in cyan) and TR-036 (TR-07 in red). The two monomers are colored in dark and light gray. The dimerization arm of the right monomer is colored in pale pink. The αY helix of the other monomer is colored pale green. The SAH location (derived from a superposition with PDB ID 6NT2) is indicated in pale yellow, but the molecule was not present during the docking calculations. The two images on the right show a close-up view of each docking pose separately. […] The dashed line separates the first and the second monomer. […] The N-terminal αY helix, the SAH location (derived from a superposition with PDB ID 3Q7E), the arginine acceptor site (derived from a superposition with PDB ID 1OR8), the Double E loop, and the dimerization arm are indicated. […] Subsequently, FLAG-beads were washed and bead-bound proteins were analyzed together with an His-tagged PRMT1 input (20 ng) by Western blot using antibodies against the His- and FLAG-tags. As negative control, anti-FLAG resin saturated with FLAG peptide was incubated with His-tagged PRMT1. The His-PRMT1 signals were densitometrically quantified, corrected to the FLAG-PRMT1 signals, and expressed relative to the solvent control, as specified by the numbers below the immunostainings. Molecular weights (kDa) of the protein marker are indicated.
To evaluate the effect of small-molecule PRMT1 modulators on the dimerization of His-tagged and FLAG-tagged PRMT1, pulldown assays were conducted. For the binding reactions, 1 μg of bead-bound FLAG-tagged PRMT1 was preincubated with or without compounds at a total volume of 200 μL IPH buffer (50 mM Tris/HCl pH 8.0, 5 mM EDTA, 0.5% (v/v) NP-40, 150 mM NaCl) containing protease inhibitors (leupeptin, aprotinin, PMSF; Sigma-Aldrich) at 4 °C and under gentle agitation for 30 min. Subsequently, 0.02 μg His-tagged PRMT1 was added per reaction and incubated at 4 °C and under gentle agitation for 15 min. Finally, the beads were washed 3 times in IPH buffer containing 400 mM NaCl and analyzed by SDS-PAGE and immunoblotting.

PANC-1 cells = experiment: Cell viability, CellTiter-Glo assay, PANC-1; format: cell-based, human; conditions: n = 3, read-out: half-maximal inhibitory concentration (IC50) for PANC-1 cell viability
Method: As negative control (Ctrl (−)), PRMT1 enzymes and [^14C-methyl]-SAM were incubated without substrates. Subsequently, samples were separated by SDS-PAGE, blotted, and analyzed by autoradiography. Substrates (H2A, H4 or GST-GAR) and molecular weights (kDa) of the protein marker are indicated. Black lines designate composite images, assembled from the same blots and exposure times. The methylation signals of the substrates were densitometrically quantified, and expressed relative to the DMSO-treated control, as indicated by the numbers below the autoradiographs. Representative results are depicted, with quantification graphs (below the autoradiographs in A and B) summarizing biological replicates. […] Subsequently, GST-GAR was immobilized on glutathione-beads and PRMT1 activity was measured by quantifying the incorporation of ^14C-methyl groups (in cpm) using liquid scintillation counting. […] Cell viability was quantified using the CellTiter-Glo assay. Viability of compound-treated cells is shown in % relative to the viability of solvent-treated cells, which was set to 100% (mean ± SD, n = 3), and then plotted against the logarithm of the compound concentrations. Concentration-viability curves were fitted by nonlinear regression, with the half-maximal inhibitory concentration (IC50) of the compounds for PANC-1 cell viability and the coefficient of determination (R^2) indicated. […] Subsequently, whole-cell extracts were prepared and analyzed by Western blot using antibodies against ADMA, ACTIN (ACT), and VINCULIN (VINC), of which the latter two stainings served as loading controls. Molecular weights (kDa) of the protein marker are indicated. All the ADMA signals per lane were densitometrically quantified, normalized to the signal of the respective loading control and expressed relative to the DMSO-treated control, as indicated by the numbers below the immunostainings.
Cell viability was assessed using the CellTiter-Glo assay (Promega) according to the manufacturer’s instructions. Briefly, PANC-1 and PaTu8988T cells were seeded as triplicates in 96 well plates (5 × 10^3 cells/well) and allowed to adhere for 3–4 h, followed by treatment with the compounds at 11–12 concentrations spanning 0.028–120 μM for 96 h, with DMSO (solvent) treated cells serving as control. Subsequently, cell viability was quantified by measuring luminescence on a microplate reader, and the signal of compound-treated cells was normalized to the signal of the solvent-treated control, which was set to 100%. Cell viability in % was plotted against the logarithm of the compound concentration, and concentration-response curves were fitted by nonlinear regression using a three-parameter logistic model to determine half-maximal inhibitory concentrations (IC50).

[3] = 100 μM compound, increase over solvent-treated activity

`CCN(CC)Cc1cccc(N/C=C2\C(=O)NC(=O)c3ccccc32)c1.Cl` [TR-036, (Z )-N-(3-{[(1,3-Dioxo-2,3-dihydroisoquinoline-4(1 H )-ylidene)methyl]amino}benzyl)-N -ethylethanaminium chloride] was tested, and the “PRMT1 methylation activity toward histones H2A and H4 and GAR, autoradiography” value [1] was “increased”, the “PRMT1 activity compared to the solvent-treated activity of 100%” value (“PRMT1 activity … of 100%” below) (FLAG-tagged PRMT1; 100 μM compound) was 215–225% and the activation at 100 µM (FLAG-tagged PRMT1; [3]) was ≥ 60%. The “interaction of FLAG-tagged PRMT1 and His-tagged PRMT1 (homodimerization)” value (from here on “interaction”) [2] was “elevated interaction of the two PRMT1 species” and the IC50 (PANC-1 cells; Homo sapiens, PANC-1, 96 h) was 32 µM.

`CN(C)Cc1cccc(-c2ccc3[nH]c(=O)c4ccccc4c3c2)c1` [TR-033, 2-{3-[(Dimethylamino)methyl]phenyl}phenanthridin-6(5H)-One] was tested, and the “PRMT1 methylation activity toward histones H2A and H4 and GAR, autoradiography” value [1] was “increased”, the “PRMT1 activity … of 100%” value (FLAG-tagged PRMT1; 100 μM compound) was 215–225% and the “effect on PRMT1 activity (in words)” value (FLAG-tagged PRMT1; 100 μM compound) was “significantly increased PRMT1 activity”. For the same compound, the activation at 100 µM (FLAG-tagged PRMT1; [3]) was ≥ 60%, the “interaction” value [2] was “elevated interaction of the two PRMT1 species” and the IC50 (PANC-1 cells; Homo sapiens, PANC-1, 96 h) was 10 µM.

`CN(C)Cc1cccc(CN/C=C2\C(=O)NC(=O)c3ccccc32)c1.Cl` [TR-07, (Z)-1-[3-({[(1,3-Dioxo-2,3-dihydroisoquinolin-4(1H)-lidene)methyl]amino}methyl)phenyl]-N,N-dimethylmethanaminium chloride] was tested, and the “PRMT1 methylation activity toward histones H2A and H4 and GAR, autoradiography” value [1] was “increased”, the “enhancement (increase) of PRMT1 enzymatic activity” value (FLAG-tagged PRMT1; [3]) was “+45%” and the “Efficacy ±Δ% (PRMT1)” value (FLAG-tagged PRMT1; Table 1, 100 μM compound, mean % difference of activity vs solvent control (100%), - inhibition, + activation, n = 3) was “+45%”. For the same compound, the “Efficacy ±∆% (PRMT1)” value (FLAG-tagged PRMT1; Table S3, 100 µM compound, mean % difference vs solvent control (100%), n≥3) was “+45%”, the EC50 (FLAG-tagged PRMT1; read-out: half-maximal effective concentration (EC50) for PRMT1) was 108 µM and the “interaction” value [2] was “elevated interaction of the two PRMT1 species”. For the same compound, the IC50 (PANC-1 cells; Homo sapiens, PANC-1, 96 h) was 45 µM.

For “(Z)-2-(2-{[(1,3-Dioxo-2,3-dihydroisoquinolin-4(1H)-ylidene)methyl]amino}phenyl)-N,N-dimethylethan-1-aminium chloride [ICTR-059]”, the “PRMT1 methylation activity toward histones H2A and H4 and GAR, autoradiography” value [1] was “increased”, the “PRMT1 activity … of 100%” value (FLAG-tagged PRMT1; 100 μM compound) was “up to 200%” and the “interaction” value [2] was “elevated interaction of the two PRMT1 species”. The IC50 (PANC-1 cells; 96 h) was 19 µM.
